Source: ChEMBL document CHEMBL4610129, “Discovery of Novel Selective and Orally Bioavailable Phosphodiesterase-1 Inhibitors for the Efficient Treatment of Idiopathic Pulmonary Fibrosis” (J Med Chem, 2020)
Values after ≈ are worked out from the molar mass of the structure shown. Active and inactive are the calls of the source. No cut-off for these calls is given here.

Assays:
Homo sapiens [1] = species: Homo sapiens; test: Anti-pulmonary fibrosis activity in human HLF assessed as reduction in TGF-beta-induced myofibroblast differentiation by measuring reduction in fibronectin protein expression incubated for 48 hrs by Western blot analysis; assay type: functional
Homo sapiens [2] = species: Homo sapiens; test: Anti-pulmonary fibrosis activity in human HLF assessed as reduction in TGF-beta-induced myofibroblast differentiation by measuring reduction in fibronectin protein expression incubated for 48 hrs by immunofluorescence staining analysis; assay type: functional
[3] = Half life in Sprague-Dawley rat at 5 mg/kg, po; assay type: ADME, organism-based; settings: in vivo
[4] = Solubility in pH 6 solution by HPLC analysis; assay type: physicochemical
[5] = target: cGMP-specific 3',5'-cyclic phosphodiesterase (Homo sapiens, UniProt O76074); test: Inhibition of PDE5A1 (535 to 860 residues) (unknown origin) using [3H]-cGMP substrate incubated for 15 mins by liquid scintillation counting method relative to control
[6] = Tmax in Sprague-Dawley rat at 5 mg/kg, po; assay type: ADME, organism-based; settings: in vivo
[7] = target: Cone cGMP-specific 3',5'-cyclic phosphodiesterase subunit alpha' (Homo sapiens, UniProt P51160); test: Inhibition of PDE6C (1 to 858 residues) (unknown origin) using [3H]-cGMP substrate incubated for 15 mins by liquid scintillation counting method relative to control
Cone cGMP-specific 3',5'-cyclic phosphodiesterase subunit alpha', sequence (P51160 whole entry, the tested form may be a part): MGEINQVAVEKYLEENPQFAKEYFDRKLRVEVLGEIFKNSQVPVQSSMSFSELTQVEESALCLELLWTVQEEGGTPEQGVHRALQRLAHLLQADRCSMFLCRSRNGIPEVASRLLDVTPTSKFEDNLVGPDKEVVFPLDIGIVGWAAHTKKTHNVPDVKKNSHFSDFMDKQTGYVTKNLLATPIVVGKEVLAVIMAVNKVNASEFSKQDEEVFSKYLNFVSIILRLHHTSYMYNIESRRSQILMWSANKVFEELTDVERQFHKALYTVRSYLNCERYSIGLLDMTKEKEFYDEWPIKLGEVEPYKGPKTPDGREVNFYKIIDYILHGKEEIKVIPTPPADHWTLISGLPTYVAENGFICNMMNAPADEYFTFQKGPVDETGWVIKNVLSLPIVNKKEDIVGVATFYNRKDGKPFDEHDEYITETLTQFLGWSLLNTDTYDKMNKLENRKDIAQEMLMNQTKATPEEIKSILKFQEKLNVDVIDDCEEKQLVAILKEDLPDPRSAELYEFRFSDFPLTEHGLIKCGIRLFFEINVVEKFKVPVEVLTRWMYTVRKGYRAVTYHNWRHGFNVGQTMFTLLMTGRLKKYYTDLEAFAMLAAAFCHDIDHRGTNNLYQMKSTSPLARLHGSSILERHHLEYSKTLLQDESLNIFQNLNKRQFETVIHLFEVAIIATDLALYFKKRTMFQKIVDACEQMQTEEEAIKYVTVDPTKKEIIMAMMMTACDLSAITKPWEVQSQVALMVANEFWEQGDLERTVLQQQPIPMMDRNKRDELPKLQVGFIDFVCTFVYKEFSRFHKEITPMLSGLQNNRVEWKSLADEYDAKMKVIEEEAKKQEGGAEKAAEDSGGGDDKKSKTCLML

[8] = target: cAMP and cAMP-inhibited cGMP 3',5'-cyclic phosphodiesterase 10A (Homo sapiens, UniProt Q9Y233); test: Inhibition of PDE10A (449 to 770 residues) (unknown origin) using [3H]-cAMP substrate incubated for 15 mins by liquid scintillation counting method relative to control
cAMP and cAMP-inhibited cGMP 3',5'-cyclic phosphodiesterase 10A, sequence (Q9Y233 whole entry, the tested form may be a part): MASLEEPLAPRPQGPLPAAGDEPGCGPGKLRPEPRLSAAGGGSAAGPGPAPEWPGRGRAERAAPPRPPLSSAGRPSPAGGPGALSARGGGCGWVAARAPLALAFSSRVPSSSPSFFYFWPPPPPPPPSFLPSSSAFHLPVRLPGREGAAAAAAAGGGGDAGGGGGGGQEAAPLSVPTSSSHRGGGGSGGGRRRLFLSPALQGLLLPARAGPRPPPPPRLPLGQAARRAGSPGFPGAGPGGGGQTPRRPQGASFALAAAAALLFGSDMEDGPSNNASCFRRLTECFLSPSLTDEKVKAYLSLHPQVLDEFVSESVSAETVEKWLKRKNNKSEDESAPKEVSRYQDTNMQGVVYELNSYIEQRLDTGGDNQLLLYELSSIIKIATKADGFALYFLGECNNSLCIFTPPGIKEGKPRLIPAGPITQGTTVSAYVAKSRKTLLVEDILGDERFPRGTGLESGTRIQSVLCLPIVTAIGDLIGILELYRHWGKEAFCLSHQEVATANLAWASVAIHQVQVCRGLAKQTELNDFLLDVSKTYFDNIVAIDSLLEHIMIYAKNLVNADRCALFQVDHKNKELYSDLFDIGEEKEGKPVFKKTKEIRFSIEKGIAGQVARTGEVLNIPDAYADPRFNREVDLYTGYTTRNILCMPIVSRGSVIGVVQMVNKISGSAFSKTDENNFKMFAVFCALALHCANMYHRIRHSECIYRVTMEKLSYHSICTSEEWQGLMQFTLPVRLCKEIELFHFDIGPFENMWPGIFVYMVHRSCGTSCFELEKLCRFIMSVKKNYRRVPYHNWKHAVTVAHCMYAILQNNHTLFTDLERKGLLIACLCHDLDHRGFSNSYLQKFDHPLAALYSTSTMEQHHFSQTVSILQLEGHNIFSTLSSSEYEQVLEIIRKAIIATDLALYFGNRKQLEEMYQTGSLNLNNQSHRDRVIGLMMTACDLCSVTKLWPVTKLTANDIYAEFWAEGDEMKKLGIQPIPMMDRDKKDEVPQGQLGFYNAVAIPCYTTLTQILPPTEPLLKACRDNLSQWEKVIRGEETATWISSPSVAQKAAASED

Rattus norvegicus [9] = test: Anti-pulmonary fibrosis activity in Sprague-Dawley rat model of BLM-induced idiopathic pulmonary fibrosis assessed as inhibition of collagen deposition at 10 mg/kg, po dosed daily for 28 days by Masson staining based assay; assay type: functional, organism-based
Rattus norvegicus [10] = test: Anti-pulmonary fibrosis activity in Sprague-Dawley rat model of BLM-induced idiopathic pulmonary fibrosis assessed as reduction in mid-expiratory flow at 10 mg/kg, po dosed daily for 28 days by mka noninvasive pulmonary monitoring system based method; assay type: functional, organism-based
[11] = Solubility in pH 7.3 solution by HPLC analysis; assay type: physicochemical
Rattus norvegicus [12] = test: Anti-pulmonary fibrosis activity in Sprague-Dawley rat model of BLM-induced idiopathic pulmonary fibrosis assessed as reduction in peak inspiratory flow at 10 mg/kg, po dosed daily for 28 days by mka noninvasive pulmonary monitoring system based method; assay type: functional, organism-based

For `C[C@@H](Nc1nc2c(cnn2C(C)(C)C)c(=O)n1Cc1ccc(F)cc1)c1ccc(Cl)cc1`, the Activity (Homo sapiens [1]) was “Dose-dependent effect”, the Activity (Homo sapiens [2]) was “Dose-dependent effect” and the half-life [3] was 222 min. It also gave a solubility [4] of 16 µg/mL (≈ 35.2 µM), an IC50 [5] of 370 nM and a Tmax [6] of 4 h. The IC50 [7] was over 10 µM, the IC50 [8] was 1770 nM and the Activity (Rattus norvegicus [9]) was “Active”. The Activity (Rattus norvegicus [10]) was “Active”, the solubility [11] was 22 µg/mL (≈ 48.5 µM) and the Activity (Rattus norvegicus [12]) was “Active”.
